Results on six compounds are retold here after patent publication US8012957B2, “Tetrahydro-1H-1,2,6-triaza-azulene cannabinoid modulators” (Janssen Pharmaceutica NV, priority 2006, dated 2011).

One test concerns the target T1, cannabinoid CB2 receptor (Homo sapiens, UniProt P34972).
T1 construct: expressed in transfected cells; host or cells: SK-N-MC cells, pcDNA3 CB-2 (human), semi-purified membrane pellet
Put plainly: Binding assay for CB2, [3H]-CP-55,940 displacement on membranes of transfected SK-N-MC cells. As to conditions: test concentration of 0.2 μM. How it is done:
(§1) Binding Assay for CB1 or CB2 Agonists or Inverse Agonists
(§2) The human CB1 and CB2 receptors were stably expressed in SK-N-MC cells transfected with pcDNA3 CB-1 (human) or pcDNA3 CB-2 (human). The cells were grown in T-180 cell culture flasks under standard cell culture conditions at 37° C. in a 5% CO2 atmosphere. The cells were harvested by trysinization and homogenized in a homogenization buffer (10 mM Tris, 0.2 mM MgCl2, 5 mM KCl, with protease inhibitors aprotinin, leupeptin, pepstatin A and bacitracin) and centrifuged (2000 g). The supernatant was then centrifuged in 2M sucrose (31,300 g) to produce a semi-purified membrane pellet. The pellet was resuspended in homogenization and stored at −80° C.
(§3) On the day of the assay, the pellet was thawed on ice and diluted in assay buffer (50 mM Tris-HCl, 5 mM MgCl2, 2.5 mM EDTA, 0.5 mg/mL fatty acid free bovine serum albumin, pH 7.5). The diluted membrane pellet was added with buffer, either a test compound or vehicle standard and a the radioligand [H]^3+-CP-55,940 (0.2 nM) to the wells of a 96-well polypropylene plate. Non-specific binding was measured in wells containing WIN 55,212 (10 uM). The plate was covered and incubated for 90 minutes at 30° C. The contents were then aspirated onto a Packard Unifilter GF/C filter bottom plate prewet with 0.5% polyethyleneimine. The wells of the polypropylene plate were rinsed and aspirated seven times with a 0.9% saline-0.5% Tween 20 solution. The Unifilter plate was dried, a scintillation cocktail was added to each well and the counts representing binding were quantitated in a TopCount scintillation counter.
(§4) For compounds tested, an IC50 binding value was obtained from percent inhibition studies in which various test concentrations were used. The binding value (in μM) was calculated by linear regression.
(§5) For those compounds without an IC50 binding value, the percent inhibition (%) was obtained at a test concentration of 0.2 μM.

For another test, the target named is T2, cannabinoid CB1 receptor (Homo sapiens, UniProt P21554).
T2 construct: expressed in transfected cells; host or cells: SK-N-MC cells, pcDNA3 CB-1 (human), semi-purified membrane pellet
Put plainly: Binding assay for CB1, [3H]-CP-55,940 displacement on membranes of transfected SK-N-MC cells. Particulars: for inhibition at 0.2 µM: test concentration of 0.2 μM, read-out: Cannabinoid CB 1 Receptor Binding Inhibition (%); for IC50: radioligand [3H]-CP-55,940 0.2 nM, calculated by linear regression. How it is done: as §1, §2, §3, §4, §5

Each structure is given as a SMILES string.

T1 sequence (P34972 whole entry): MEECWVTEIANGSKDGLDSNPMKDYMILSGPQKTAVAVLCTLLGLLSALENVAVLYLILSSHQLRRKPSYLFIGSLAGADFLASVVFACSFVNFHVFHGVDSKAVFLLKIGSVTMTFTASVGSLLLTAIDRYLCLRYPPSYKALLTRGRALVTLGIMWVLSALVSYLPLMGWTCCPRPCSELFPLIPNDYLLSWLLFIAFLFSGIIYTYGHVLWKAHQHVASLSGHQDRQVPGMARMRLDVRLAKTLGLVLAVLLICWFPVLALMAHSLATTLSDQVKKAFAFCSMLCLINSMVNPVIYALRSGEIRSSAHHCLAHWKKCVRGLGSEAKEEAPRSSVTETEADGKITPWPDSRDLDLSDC
T2 sequence (P21554 whole entry): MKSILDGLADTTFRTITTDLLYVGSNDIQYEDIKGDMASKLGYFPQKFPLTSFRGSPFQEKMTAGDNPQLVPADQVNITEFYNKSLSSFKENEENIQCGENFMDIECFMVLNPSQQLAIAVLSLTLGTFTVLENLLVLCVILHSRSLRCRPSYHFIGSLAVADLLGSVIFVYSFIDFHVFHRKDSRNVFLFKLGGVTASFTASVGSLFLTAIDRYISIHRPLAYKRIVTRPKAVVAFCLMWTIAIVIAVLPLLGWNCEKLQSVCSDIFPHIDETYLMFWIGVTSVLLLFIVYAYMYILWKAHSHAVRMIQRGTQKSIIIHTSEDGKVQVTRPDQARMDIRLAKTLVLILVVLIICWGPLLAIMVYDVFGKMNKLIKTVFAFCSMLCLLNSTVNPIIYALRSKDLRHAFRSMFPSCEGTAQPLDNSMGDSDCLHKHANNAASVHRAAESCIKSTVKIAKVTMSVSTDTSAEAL

As to `COC(=O)N1CCc2c(C(=O)NN3CCCCC3)nn(-c3ccc(Cl)cc3Cl)c2/C(=C/c2ccc(F)cc2)C1` [Cpd 6, (8E)-1-(2,4-dichloro-phenyl)-8-(4-fluoro-benzylidene)-3-(piperidin-1-ylcarbamoyl)-4,5,7,8-tetrahydro-1H-1,2,6-triaza-azulene-6-carboxylic acid methyl ester], the inhibition (commonly the share of the control response that was lost under treatment) at 0.2 µM was determined as 17% at cannabinoid CB2 receptor and 39% at cannabinoid CB1 receptor.

For the compound `CC(NC(=O)c1nn(-c2ccc(Cl)cc2Cl)c2c1CCN(C(=O)OC(C)(C)C)C/C2=C\c1ccc(F)cc1)c1ccccc1` (stereo not drawn) [Cpd 3, (8E)-1-(2,4-dichloro-phenyl)-8-(4-fluoro-benzylidene)-3-(1-phenyl-ethylcarbamoyl)-4,5,7,8-tetrahydro-1 H-1,2,6-triaza-azulene-6-carboxylic acid tert-butyl ester], testing at 0.2 µM on cannabinoid CB2 receptor gave an inhibition of 15%. Further, the IC50 (commonly the concentration needed to halve the response being measured) on cannabinoid CB1 receptor was 61 nM.

Compound `CC(NC(=O)c1nn(-c2ccc(Cl)cc2Cl)c2c1CCN(C(=O)OC(C)(C)C)C/C2=C\c1ccc(F)cc1)c1ccccn1` (stereo not drawn) [Cpd 4, (8E)-1-(2,4-dichloro-phenyl)-8-(4-fluoro-benzylidene)-3-(1-pyridin-2-yl-ethylcarbamoyl)-4,5,7,8-tetrahydro-1 H-1,2,6-triaza-azulene-6-carboxylic acid tert-butyl ester] had an inhibition at 0.2 µM at cannabinoid CB2 receptor of 14%. Besides, on cannabinoid CB1 receptor, the IC50 was 50 nM.

On to `CC(C)(C)OC(=O)N1CCc2c(C(=O)NN3CCCCC3)nn(-c3ccc(Cl)cc3Cl)c2/C(=C/c2ccc(F)cc2)C1` [Cpd 2, (8E)-1-(2,4-dichloro-phenyl)-8-(4-fluoro-benzylidene)-3-(piperidin-1-ylcarbamoyl)-4,5,7,8-tetrahydro-1H-1,2,6-triaza-azulene-6-carboxylic acid tert-butyl ester], for which the inhibition at 0.2 µM on cannabinoid CB2 receptor was determined as 15%; at cannabinoid CB1 receptor, 54%.

Take `O=C(c1nn(-c2ccc(Cl)cc2Cl)c2c1CCNC/C2=C\c1ccc(F)cc1)N1CCCCC1` [Cpd 5, (8E)-[1-(2,4-dichloro-phenyl)-8-(4-fluoro-benzylidene)-1,4,5,6,7,8-hexahydro-1,2,6-triaza-azulen-3-yl]-piperidin-1-yl-methanone]: the inhibition at 0.2 µM on cannabinoid CB2 receptor was determined as 10%; at cannabinoid CB1 receptor it was 16%.

`CC(C)(C)OC(=O)N1CCc2c(C(=O)N3CCCCC3)nn(-c3ccc(Cl)cc3Cl)c2/C(=C/c2ccc(F)cc2)C1` [Cpd 1, (8E)-1-(2,4-dichloro-phenyl)-8-(4-fluoro-benzylidene)-3-(piperidine-1-carbonyl)-4,5,7,8-tetrahydro-1 H-1,2,6-triaza-azulene-6-carboxylic acid tert-butyl ester]: the inhibition at 0.2 µM is 6% on cannabinoid CB2 receptor and 27% at cannabinoid CB1 receptor.
